Experimental data: US8404708B2, “Dual NK1/NK3 receptor antagonists” (Hoffmann-La Roche Inc., priority 2004, dated 2013)
Where two headings read alike, the source gives them in different places.

What was measured:
human NK1 receptor = human NK1 receptor (Homo sapiens, UniProt P25103); test: NK1 receptor binding, [3H]substance P displacement, CHO cell membranes
[1] = target: T1, Recombinant human NK3 (hNK3) receptor (Homo sapiens, UniProt P29371); test: NK3 receptor binding, [3H]SR142801 displacement, membrane preparations
T1 construct: expressed in transfected cells
T1 sequence (P29371 1-465): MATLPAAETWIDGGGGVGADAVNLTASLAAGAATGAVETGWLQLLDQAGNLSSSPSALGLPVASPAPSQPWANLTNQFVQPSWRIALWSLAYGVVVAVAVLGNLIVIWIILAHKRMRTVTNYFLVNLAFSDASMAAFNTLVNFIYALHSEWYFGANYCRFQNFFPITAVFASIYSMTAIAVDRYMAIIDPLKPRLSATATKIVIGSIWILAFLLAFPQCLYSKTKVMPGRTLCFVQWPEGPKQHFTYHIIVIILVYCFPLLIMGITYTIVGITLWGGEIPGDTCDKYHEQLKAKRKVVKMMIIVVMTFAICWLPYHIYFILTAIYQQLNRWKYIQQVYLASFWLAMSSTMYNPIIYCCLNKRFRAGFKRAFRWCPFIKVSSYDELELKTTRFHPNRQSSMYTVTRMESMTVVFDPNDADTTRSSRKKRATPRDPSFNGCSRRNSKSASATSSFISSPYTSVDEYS
How it was run: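 Incubation ran 90 min at room temperature in 50 mM Tris-HCl pH 7.4 with 0.1% BSA, 4 mM MnCl2 and 1 μM phosphoramidon, using about 2.5 μg hNK3 membrane protein per well. Nonspecific binding was defined with 10 μM SB222200, and bound radioactivity was collected on PEI-soaked GF/C filters for scintillation counting.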

[2] = first value of the cell NK1/NK3, read-out: pKi NK1 (converted)
[3] = second value of the cell NK1/NK3, read-out: pKi NK3 (converted)
[4] = first value of the cell pKi NK1/NK3, human NK1 receptor, [3H]substance P
[5] = second value of the cell pKi NK1/NK3, hNK3 receptor, [3H]SR142801

Sequence of human NK1 receptor (P25103 whole entry): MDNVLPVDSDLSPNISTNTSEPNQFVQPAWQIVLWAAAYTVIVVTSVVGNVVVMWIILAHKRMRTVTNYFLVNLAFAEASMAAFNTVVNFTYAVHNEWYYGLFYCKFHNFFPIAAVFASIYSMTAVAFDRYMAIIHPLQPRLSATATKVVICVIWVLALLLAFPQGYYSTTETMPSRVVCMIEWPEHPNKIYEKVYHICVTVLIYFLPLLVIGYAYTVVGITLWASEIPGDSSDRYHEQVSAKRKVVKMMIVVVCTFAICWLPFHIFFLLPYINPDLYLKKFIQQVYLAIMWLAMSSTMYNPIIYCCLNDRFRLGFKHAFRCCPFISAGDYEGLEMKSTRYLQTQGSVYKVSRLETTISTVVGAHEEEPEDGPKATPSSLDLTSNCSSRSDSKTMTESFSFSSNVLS

Ki (human NK1 receptor; [2]) [nM]	Ki [1, 3] [nM]	Ki (human NK1 receptor; [4]) [nM]	Ki [1, 5] [nM]	Structure (SMILES)
0.955	10.7			Cc1ncccc1-c1cc(N2C[C@@H](O)C[C@H]2CO)ncc1N(C)C(=O)C(C)(C)c1cc(C(F)(F)F)cc(C(F)(F)F)c1 [Example 255, (2S,4S)-2-(3,5-Bis-trifluoromethyl-phenyl)-N-[6′-(4-hydroxy-2-hydroxymethyl-pyrrolidin-1-yl)-2-methyl-[3,4′]bipyridinyl-3′-yl]-N-methyl-isobutyramide]
		1.74	4.57	Cc1cc(F)ccc1-c1cc(N(C)C(CO)CO)ncc1N(C)C(=O)C(C)(C)c1cc(C(F)(F)F)cc(C(F)(F)F)c1 [Example 196, 2-(3,5-Bis-trifluoromethyl-phenyl)-N-{4-(4-fluoro-2-methyl-phenyl)-6-[(2-hydroxy-1-hydroxymethyl-ethyl)-methyl-amino]-pyridin-3-yl}-N-methyl-isobutyramide]
		1.2	0.617	Cc1ccccc1-c1cc(N2C[C@H](O)C[C@H]2CO)ncc1N(C)C(=O)C(C)(C)c1cc(Cl)cc(OC(F)F)c1 [Example 37, (2S,4R)-2-(3-Chloro-5-difluoromethoxy-phenyl)-N-[6-(4-hydroxy-2-hydroxymethyl-pyrrolidin-1-yl)-4-o-tolyl-pyridin-3-yl]-N-methyl-isobutyramide]
		1.23	20	Cc1ccccc1-c1cc(N2C[C@@H](O)[C@@H](O)C2)ncc1N(C)C(=O)C(C)(C)c1cc(C(F)(F)F)cc(C(F)(F)F)c1 [Example 184, (3R,4S)-2-(3,5-Bis-trifluoromethyl-phenyl)-N-[6-(3,4-dihydroxy-pyrrolidin-1-yl)-4-o-tolyl-pyridin-3-yl]-N-methyl-isobutyramide]
		1.32	0.891	Cc1cc(F)ccc1-c1cc(N2CCC[C@H]2CO)ncc1N(C)C(=O)C(C)(C)c1cc(F)cc(C(F)(F)F)c1 [Example 24, (S)-N-[4-(4-Fluoro-2-methyl-phenyl)-6-(2-hydroxymethyl-pyrrolidin-1-yl)-pyridin-3-yl]-2-(3-fluoro-5-trifluoromethyl-phenyl)-N-methyl-isobutyramide]
		0.933	0.813	CN(C(=O)C(C)(C)c1cc(C(F)(F)F)cc(C(F)(F)F)c1)c1cnc(N(CCO)CCO)cc1-c1ccccc1Cl [Example 82, N-[6-[Bis-(2-hydroxy-ethyl)-amino]-4-(2-chloro-phenyl)-pyridin-3-yl]-2-(3,5-bis-trifluoromethyl-phenyl)-N-methyl-isobutyramide]
1.35	6.17			CN(C(=O)C(C)(C)c1cc(C(F)(F)F)cc(C(F)(F)F)c1)c1cnc(N2C[C@H](O)C[C@H]2CO)cc1-c1cc(F)cc(F)c1 [Example 208, (2S,4R)-2-(3,5-Bis-trifluoromethyl-phenyl)-N-[4-(3,5-difluoro-phenyl)-6-(4-hydroxy-2-hydroxymethyl-pyrrolidin-1-yl)-pyridin-3-yl]-N-methyl-isobutyramide]
		0.49	4.07	CN(C(=O)C(C)(C)c1cc(C(F)(F)F)cc(C(F)(F)F)c1)c1cnc(N[C@H]2CCC[C@@H]2O)cc1-c1ccccc1Cl [Example 153, (1S,2S)-2-(3,5-Bis-trifluoromethyl-phenyl)-N-[4-(2-chloro-phenyl)-6-(2-hydroxy-cyclopentylamino)-pyridin-3-yl]-N-methyl-isobutyramide]
1.45	1.62			Cc1ccccc1-c1cc(N2C[C@@H](O)C[C@H]2CO)ncc1N(C)C(=O)C(C)(C)c1cc(C(F)(F)F)cc(C(F)(F)F)c1 [Example 241, (2S,4S)-2-(3,5-Bis-trifluoromethyl-phenyl)-N-[6-(4-hydroxy-2-hydroxymethyl-pyrrolidin-1-yl)-4-o-tolyl-pyridin-3-yl]-N-methyl-isobutyramide]
0.813	2.69			Cc1ncccc1-c1cc(N2CC[C@H](O)[C@H]2CO)ncc1N(C)C(=O)C(C)(C)c1cc(C(F)(F)F)cc(C(F)(F)F)c1 [Example 278, (2R,3S)-2-(3,5-Bis-trifluoromethyl-phenyl)-N-[6′-(3-hydroxy-2-hydroxymethyl-pyrrolidin-1-yl)-2-methyl-[3,4′]bipyridinyl-3′-yl]-N-methyl-isobutyramide]
		3.63	1.2	C[C@@H](O)[C@@H](CO)Nc1cc(-c2ccccc2Cl)c(N(C)C(=O)C(C)(C)c2cc(C(F)(F)F)cc(C(F)(F)F)c2)cn1 [Example 144, (1R,2R)-2-(3,5-Bis-trifluoromethyl-phenyl)-N-[4-(2-chloro-phenyl)-6-(2-hydroxy-1-hydroxymethyl-propylamino)-pyridin-3-yl]-N-methyl-isobutyramide]
1.35	0.794			Cc1ccccc1-c1cc(N2C[C@H](O)C[C@H]2CO)ncc1N(C)C(=O)C(C)(C)c1cc(C(F)(F)F)cc(C(F)(F)F)c1 [Example 216, (2S,4R)-2-(3,5-Bis-trifluoromethyl-phenyl)-N-[6-(4-hydroxy-2-hydroxymethyl-pyrrolidin-1-yl)-4-o-tolyl-pyridin-3-yl]-N-methyl-isobutyramide]
1.12	1.51			CN(C(=O)C(C)(C)c1cc(C(F)(F)F)cc(C(F)(F)F)c1)c1cnc(N2C[C@H](O)C[C@H]2CO)cc1-c1ccccc1C=O [Example 224, (2S,4R)-2-(3,5-Bis-trifluoromethyl-phenyl)-N-[4-(2-formyl-phenyl)-6-(4-hydroxy-2-hydroxymethyl-pyrrolidin-1-yl)-pyridin-3-yl]-N-methyl-isobutyramide]
1.29	1.51			CN(C(=O)C(C)(C)c1cc(C(F)(F)F)cc(C(F)(F)F)c1)c1cnc(N2CC[C@H](O)[C@H]2CO)cc1-c1ccc(F)cc1CO [Example 274, (2R,3S)-2-(3,5-Bis-trifluoromethyl-phenyl)-N-[4-(4-fluoro-2-hydroxymethyl-phenyl)-6-(3-hydroxy-2-hydroxymethyl-pyrrolidin-1-yl)-pyridin-3-yl]-N-methyl-isobutyramide]
		3.39	0.891	CN(C(=O)C(C)(C)c1cc(Cl)cc(Cl)c1)c1cnc(N2CCC[C@H]2CO)cc1-c1ccccc1Cl [Example 2, (S)-N-[4-(2-Chloro-phenyl)-6-(2-hydroxymethyl-pyrrolidin-1-yl)-pyridin-3-yl]-2-(3,5-dichloro-phenyl)-N-methyl-isobutyramide]
		1.1	26.9	Cc1ccccc1-c1cc(N2C[C@H](O)[C@@H](O)C2)ncc1N(C)C(=O)C(C)(C)c1cc(C(F)(F)F)cc(C(F)(F)F)c1 [Example 183, (3S,4S)-2-(3,5-Bis-trifluoromethyl-phenyl)-N-[6-(3,4-dihydroxy-pyrrolidin-1-yl)-4-o-tolyl-pyridin-3-yl]-N-methyl-isobutyramide]
		6.31	4.47	Cc1ccccc1-c1cc(N2CCC[C@H]2CO)ncc1N(C)C(=O)C(C)(C)c1cc(F)cc(F)c1 [Example 15, (S)-2-(3,5-Difluoro-phenyl)-N-[6-(2-hydroxymethyl-pyrrolidin-1-yl)-4-o-tolyl-pyridin-3-yl]-N-methyl-isobutyramide]
6.31	7.41			CN(C(=O)C(C)(C)c1cc(C(F)(F)F)cc(C(F)(F)F)c1)c1cnc(N2CCC[C@H]2CO)cc1-c1ccc(Cl)cc1 [Example 287, (S)-2-(3,5-Bis-trifluoromethyl-phenyl)-N-[4-(4-chloro-phenyl)-6-(2-hydroxymethyl-pyrrolidin-1-yl)-pyridin-3-yl]-N-methyl-isobutyramide]
